This note sets out measurements from US10961202B2, “Bis-benzimidazole compounds and methods of using the same” (THE SCRIPPS RESEARCH INSTITUTE, priority 2017, dated 2021).

The assay has as its system r(CUG)12-MBNL1 complex. As to the kind of experiment: Inhibition of the r(CUG)12-MBNL1 complex measured by TR-FRET. It is filed as biochemical. Conditions: 80 nM RNA, 60 nM MBNL1-His6. (In general: Time-resolved FRET reads energy transfer from a long-lived donor to a nearby acceptor.)

A word on the IC50: it is the concentration that inhibits the measured activity by half. Low readings indicate higher potency, high ones lower potency. For `C[C@@H](CNC(=O)c1ccc(-c2nc3ccc(-c4ccc5nc(-c6ccc(C(=O)NCCN(C)C)cc6)[nH]c5c4)cc3[nH]2)cc1)NC(=O)c1ccc(-c2nc3ccc(-c4ccc5nc(-c6ccc(C(=O)NCCN(C)C)cc6)[nH]c5c4)cc3[nH]2)cc1` [Compound 442], under “Table M”, the IC50 came to 6.7 µM.

Turning to `N=C(N)Nc1ccc2nc(-c3ccc(-c4ccc(-c5nc6ccc(NC(=N)N)cc6[nH]5)cc4)cc3)[nH]c2c1` [Compound 81], for the setting “Table L”, the IC50 was found to be 6.1 µM.

With `CN(C)CCNC(=O)CSc1ccc2nc(-c3ccc(-c4nc5ccc(SCC(=O)NCCN(C)C)cc5[nH]4)cc3)[nH]c2c1` [Compound 285, N-[2-(dimethylamino)ethyl]-2-[[2-(4-[6-[([[2-(dimethylamino)ethyl]carbamoyl]methyl)sulfanyl]-1H-1,3-benzodiazol-2-yl]phenyl)-1H-1,3-benzodiazol-6-yl]sulfanyl]acetamide], the IC50 (Table M) was above 200 µM.

`CN(C)CCNC(=O)c1ccc(-c2nc3ccc(-c4ccc5nc(-c6ccc(C(=O)Nc7cccc(-c8cn(CCCNCC(=O)N9CCC[C@H]9C(=O)N9CCC[C@H]9C(=O)N9CCCC9C(=O)N9CCC[C@H]9C(=O)N(CCCn9cc(-c%10cccc(NC(=O)c%11ccc(-c%12nc%13ccc(-c%14ccc%15nc(-c%16ccc(C(=O)NCCN(C)C)cc%16)[nH]c%15c%14)cc%13[nH]%12)cc%11)c%10)nn9)CC(N)=O)nn8)c7)cc6)[nH]c5c4)cc3[nH]2)cc1` (stereo partly shown) [Compound 436]: the IC50 (Table M) amounted to 2.6 µM. That is a single-digit micromolar value.

For the setting “Table M”, `C[C@@H](NC(=O)CN(CCN)C(=O)c1ccc(-c2nc3cc(-c4ccc5[nH]c(-c6ccc(C(=O)NCCN(C)C)cc6)nc5c4)ccc3[nH]2)cc1)C(=O)N[C@H](C)C(=O)N[C@H](C)C(=O)N[C@H](C)C(=O)N(CCNC(=O)c1ccc(-c2nc3cc(-c4ccc5[nH]c(-c6ccc(C(=O)NCCN(C)C)cc6)nc5c4)ccc3[nH]2)cc1)CC(N)=O` (single isomer, unassigned) [Compound 443] showed an IC50 of 8 µM.

On to `N=C(N)Nc1ccc2nc(-c3ccc(-c4nc5ccc(NC(=N)N)cc5[nH]4)cc3)[nH]c2c1` [Compound 3, 1,1′-(2,2′-(1,4-phenylene)bis(1H-benzo[d]imidazole-6,2-diyl))diguanidine], for which the IC50 (Table L) came to 27 µM.

Regarding `C[C@@H](C(=O)N(C)[C@@H](C)C(=O)N(C)[C@@H](C)C(=O)N(C)[C@@H](C)C(=O)N(CCCn1cc(COCCOCCN(C)C(=O)c2ccc(-c3nc4ccc(-c5ccc6nc(-c7ccc(C(=O)NCCN(C)C)cc7)[nH]c6c5)cc4[nH]3)cc2)nn1)CC(N)=O)N(C)C(=O)CNCCCn1cc(COCCOCCN(C)C(=O)c2ccc(-c3nc4ccc(-c5ccc6nc(-c7ccc(C(=O)NCCN(C)C)cc7)[nH]c6c5)cc4[nH]3)cc2)nn1` [Compound 430], the midpoint of inhibition (Table M), the IC50, lay at 7.7 µM.

With `CN(C)CCNC(=O)c1ccc2nc(-c3ccc(-c4nc5ccc(C(=O)NCCNC(=O)OC(C)(C)C)cc5[nH]4)cc3)[nH]c2c1` [Compound 49, tert-butyl (2-(2-(4-(6-((2-(dimethylamino)ethyl)carbamoyl)-1H-benzo[d]imidazol-2-yl)phenyl)-1H-benzo[d]imidazole-6-carboxamido)ethyl)carbamate], the IC50 (Table L) was determined as 22.1 µM.

Compound `CN(C)CCNC(=O)c1ccc(-c2nc3ccc(-c4ccc5nc(-c6ccc(C(=O)NCC7CCCCN7C(=O)c7ccc(-c8nc9ccc(-c%10ccc%11nc(-c%12ccc(C(=O)NCCN(C)C)cc%12)[nH]c%11c%10)cc9[nH]8)cc7)cc6)[nH]c5c4)cc3[nH]2)cc1` (stereo not shown) [Compound 440] showed an IC50 (Table M) of 1.2 µM.

`CN(C)CCCOC(=O)c1ccc2nc(-c3ccc(-c4nc5ccc(C(=O)OCCCN(C)C)cc5[nH]4)cc3)[nH]c2c1` [Compound 56]: for the setting “Table L”, the IC50 came to 5 µM.

Consider `CN(C)CCCOc1ccc(-c2nc3cc(-c4ccc5[nH]c(-c6ccc(C(=O)NCCCn7cc(CCCNC(=O)c8ccc(C9=Nc%10cc(-c%11ccc%12[nH]c(-c%13ccc(C(=O)NCCN(C)C)cc%13)nc%12c%11)ccc%10C9)cc8)nn7)cc6)nc5c4)ccc3[nH]2)cc1` [Compound 457], for which the IC50 (Table M) is above 200 µM.

With `CN(C)CCNC(=O)c1ccc(-c2nc3cc(-c4ccc5[nH]c(-c6ccc(OCCN(C)C)cc6)nc5c4)ccc3[nH]2)cc1` [Compound 382], where the note is “Table M”, the IC50 came to 17.4 µM.

As for `CN(C)CCCCOc1ccc2nc(-c3ccc(-c4nc5ccc(O)cc5[nH]4)cc3)[nH]c2c1` [Compound 200, 2-(4-(6-(4-(dimethylamino)butoxy)-1H-benzo[d]imidazol-2-yl)phenyl)-1H-benzo[d]imidazol-6-ol], inhibition (Table M) was half-maximal at 32.1 µM (IC50).

Regarding `O=[N+]([O-])c1ccc2nc(-c3ccc(-c4ccc(-c5nc6ccc([N+](=O)[O-])cc6[nH]5)cc4)cc3)[nH]c2c1` [Compound 79], half-maximal inhibition (Table L) (IC50) was put at 43.9 µM.

In the case of `CN1CC[C@@H](Oc2ccc(-c3nc4cc(-c5ccc6[nH]c(-c7ccc(O)cc7)nc6c5)ccc4[nH]3)cc2)C1` [Compound 374], the IC50 (Table M) is 12.8 µM.

Consider `C[C@@H](NC(=O)CNCCNC(=O)c1ccc(-c2nc3cc(-c4ccc5[nH]c(-c6ccc(C(=O)NCCN(C)C)cc6)nc5c4)ccc3[nH]2)cc1)C(=O)N[C@H](C)C(=O)N[C@H](C)C(=O)N[C@H](C)C(=O)N(CCNC(=O)c1ccc(-c2nc3cc(-c4ccc5[nH]c(-c6ccc(C(=O)NCCN(C)C)cc6)nc5c4)ccc3[nH]2)cc1)CC(N)=O` (single isomer, unassigned) [Compound 444], for which, where the note is “Table M”, the IC50 turned out to be 13 µM.

On to `CN(C)CCNC(=O)c1ccc(-c2nc3cc(-c4ccc5[nH]c(-c6ccc(C(=O)NCCOCCOCCOCCOCCN=[N+]=[N-])cc6)nc5c4)ccc3[nH]2)cc1` [Compound 397], for which, where the note is “Table M”, the IC50 was found to be 12.2 µM.

On to `CN(C)CCCCCCOc1ccc2nc(-c3ccc(-c4nc5ccc(O)cc5[nH]4)cc3)[nH]c2c1` [Compound 209], for which, under “Table M”, the IC50 was 19.4 µM.

As for `N=C(N)Nc1cccc(-c2nc3cc(-c4ccc5nc(-c6cccc(N)c6)[nH]c5c4)ccc3[nH]2)c1` [Compound 166], under “Table L”, 46 µM corresponded to half-maximal inhibition (IC50).

In turn, `CN(C)CCNC(=O)c1ccc(-c2nc3ccc(-c4ccc5nc(-c6ccc(C(=O)NCc7cn(CCCNCC(=O)N8CCC[C@H]8C(=O)N8CCC[C@H]8C(=O)N8CCC[C@H]8C(=O)N8CCC[C@H]8C(=O)N(CCCn8cc(CNC(=O)c9ccc(-c%10nc%11ccc(-c%12ccc%13nc(-c%14ccc(C(=O)NCCN(C)C)cc%14)[nH]c%13c%12)cc%11[nH]%10)cc9)nn8)CC(N)=O)nn7)cc6)[nH]c5c4)cc3[nH]2)cc1` [Compound 434, (S)-N-(2-amino-2-oxoethyl)-N-(3-(4-((4-(2′-(4-((2-(dimethylamino)ethyl)carbamoyl)phenyl)-3H,3′H-[5,5′-bibenzo[d]imidazol]-2-yl)benzamido)methyl)-1H-1,2,3-triazol-1-yl)propyl)-1-((3-(4-((4-(2′-(4-((2-(dimethylamino)ethyl)carbamoyl)phenyl)-3H,3′H-[5,5′-bibenzo[d]imidazol]-2-yl)benzamido)methyl)-1H-1,2,3-triazol-1-yl)propyl)glycyl-L-prolyl-L-prolyl-L-prolyl)pyrrolidine-2-carboxamide] yielded an IC50 (Table M) of 10.5 µM.

For the compound `CN(C)CCNC(=O)Nc1ccc2nc(-c3ccc(-c4nc5ccc(NC(=O)NCCN(C)C)cc5[nH]4)cc3)[nH]c2c1` [Compound 64], inhibition (Table L) was half-maximal at 27 µM (IC50). This counts as double-digit micromolar.

Where the note is “Table M”, `NCc1cccc(Oc2ccc3nc(-c4ccc(-c5nc6ccc(Oc7cccc(CN)c7)cc6[nH]5)cc4)[nH]c3c2)c1` [Compound 234, (((2,2′-(1,4-phenylene)bis(1H-benzo[d]imidazole-6,2-diyl))bis(oxy))bis(3,1-phenylene))dimethanamine] yielded an IC50 of 39.8 µM.
